This passage reports IC50 results from BindingDB's records for doi:10.1016/j.bmcl.2003.12.023 (Pfizer, 2004).

Each structure is given as a SMILES string.

The target of the assay is Mitogen-activated protein kinase 14 (Homo sapiens, UniProt Q16539). The assay can be described thus: Enzyme Inhibition Assay.
Mitogen-activated protein kinase 14, sequence (Q16539 whole entry): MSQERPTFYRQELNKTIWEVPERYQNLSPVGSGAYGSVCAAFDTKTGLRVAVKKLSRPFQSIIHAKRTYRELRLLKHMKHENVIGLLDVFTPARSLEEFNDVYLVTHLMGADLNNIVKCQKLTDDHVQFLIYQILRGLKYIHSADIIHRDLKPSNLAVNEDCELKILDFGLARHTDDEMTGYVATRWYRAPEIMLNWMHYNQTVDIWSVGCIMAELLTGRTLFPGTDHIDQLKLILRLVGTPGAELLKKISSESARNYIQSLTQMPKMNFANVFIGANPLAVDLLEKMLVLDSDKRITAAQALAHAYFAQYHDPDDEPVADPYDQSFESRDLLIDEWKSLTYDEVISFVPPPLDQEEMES

One may read the IC50 as the concentration that gives 50% inhibition. `CCn1c(=O)n(CC)c2cc(-c3[nH]c(C4CCNCC4)nc3-c3cccc(C)c3)ccc21` [1,3-diethyl-5-[4-(3-methylphenyl)-2-(piperidin-4-yl)-1H-imidazol-5-yl]-2,3-dihydro-1H-1,3-benzodiazol-2-one] gave a 50% inhibitory concentration (IC50) of 70 nM.
